# Measured values: PMC5431883, “Enhancing Specific Disruption of Intracellular Protein Complexes by Hydrocarbon Stapled Peptides Using Lipid Based Delivery” (Scientific Reports, 2017)
# Positions of bridges follow the written chain, without caps; N, C: chain ends. Non-standard residues stand in square brackets, D forms with d. Residues, ends and D or L forms follow the SMILES beside them. R8 = C=CCCCCCC[C@@](C)(N)C(=O)O; Cba = N[C@@H](CC1CCC1)C(=O)O; S5 = C=CCCC[C@](C)(N)C(=O)O; Ahx = NCCCCCC(=O)O
# Target: T1, Mdm2 (1-125) (Homo sapiens, UniProt Q00987)
# T1 construct: Purified MDM2 (1-125) protein was titrated against 50 nM carboxyfluorescein (FAM)-labeled; GST (N, cleaved yes); made in house; host or cells: E. coli BL21 DE3 (pGEX-6P-1)
# Experiment: Mdm2 competitive fluorescence anisotropy assay (FAM-labeled 12/1 peptide displacement); also: 250 nM MDM2
# Assay type: binding
# Conditions: read-out: Kd (apparent dissociation constant, competitive fluorescence anisotropy)
# Procedure: analyzed with SDS page gel and concentrated using a Centricon (3.5 kDa MWCO) concentrator, Millipore. Mdm2 protein samples were then dialyzed into a buffer solution containing 20mM Bis-Tris, pH 6.5, 0.05M NaCl with 1mM DTT and loaded onto a monoS column pre-equilibrated in buffer A (20mM Bis-Tris, pH 6.5, 1mM DTT). The column was then washed in 6 column volumes of buffer A and bound protein was eluted with a linear gradient of 1M NaCL over 25 column volumes. Protein fractions were analyzed with SDS page gel and concentrated using a Centricon (3.5 kDa MWCO) concentrator, Millipore.
# Protein concentration was determined using A280 using an extinction coefficients […]
# Mdm2 Competitive Fluorescence Anisotropy Assay and Kd Determination […]
# Dissociation constants for titration of MDM2 against […]
# equation shown below:25,26
# [P] is the protein concentration (MDM2), [L] is the labeled peptide concentration, r is the anisotropy measured, r0 is the anisotropy of the free peptide, rb is the anisotropy of the MDM2– FAM-labeled peptide complex, Kd is the dissociation constant, [L]t is the total FAM labeled
# (1 picture or pasted object on this page, not shown here) […]
# peptide concentration, and [P]t is the total MDM2 concentration. […]
# respective competing ligands in subsequent competition assays.
# Apparent Kd values were determined for a variety of molecules via competitive fluorescence anisotropy experiments. Titrations were carried out with the concentration of MDM2 held constant […]
# The competing molecules were then titrated against the complex of the FAM-labeled peptide and protein. Apparent Kd values were determined by fitting the experimental data to the equations shown below:26,27 […]
# [L]st and [L]t denote labeled ligand and total unlabeled ligand input concentrations, respectively.
# Kd2 is the dissociation constant of the interaction between the unlabeled ligand and the protein. In […]
# all competitive types of experiments, it is assumed that [P]t > [L]st, otherwise considerable amounts of free labeled ligand would always be present and would interfere with measurements. Kd1 is the […]
# experimentally determined as described in the previous paragraph. The FAM-labeled peptide was dissolved in dimethyl sulfoxide (DMSO) at 1 mM and diluted into experimental buffer. Readings were carried out with an Envision Multilabel Reader (PerkinElmer). Experiments were carried out […]
# Tween 20 buffer. All titrations were carried out in triplicate. Curve-fitting was carried out using […]
# Negative control titrations of the ligands under investigation were also carried out with the fluorescently labeled peptide (in the absence of MDM2) to ensure no interactions were occurring between the ligands and FAM-labeled peptide. […]
# which would otherwise indicate an unintended interaction between the ligand and the FAM-labeled peptide to be displaced from the MDM2 binding site. […]
# T1 sequence (Q00987 1-125): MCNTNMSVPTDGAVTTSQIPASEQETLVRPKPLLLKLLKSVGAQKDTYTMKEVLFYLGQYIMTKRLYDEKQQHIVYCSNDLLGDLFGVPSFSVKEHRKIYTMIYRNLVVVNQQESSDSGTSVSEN
row,Compound,Kd
1,CC(=O)N[C@@H](CCCCN)C(=O)N[C@@H](CCCCN)C(=O)NCCCCCC(=O)N[C@@H](CC(C)C)C(=O)N[C@H](C(=O)N[C@@H](Cc1ccccc1)C(=O)N[C@]1(C)CCCCCCC=CCCC[C@@](C)(C(=O)N[C@@H](CCC(=O)O)C(=O)N[C@@H](CC(N)=O)C(=O)N[C@@H](Cc2ccccc2)C(N)=O)NC(=O)[C@H](CC(C)C)NC(=O)[C@H](CC(C)C)NC(=O)[C@H](C)NC(=O)[C@H](Cc2c[nH]c3ccccc23)NC(=O)[C@H](Cc2ccc(O)cc2)NC(=O)[C@H](CCC(=O)O)NC1=O)[C@@H](C)O [VIP-119] (Ac-KK[Ahx]LTF[R8]EYWALL[S5]ENF-NH2; staple 7-14),2.7 ± 0.9 nM
2,CC(=O)N[C@@H](CC(C)C)C(=O)N[C@H](C(=O)N[C@@H](Cc1ccccc1)C(=O)N[C@]1(C)CCCCCCC=CCCC[C@@](C)(C(=O)N[C@@H](CCC(=O)O)C(=O)N[C@@H](CC(N)=O)C(=O)N[C@@H](Cc2ccccc2)C(N)=O)NC(=O)[C@H](CC(C)C)NC(=O)[C@H](CC(C)C)NC(=O)[C@H](C)NC(=O)[C@H](Cc2c[nH]c3ccccc23)NC(=O)[C@H](Cc2ccc(O)cc2)NC(=O)[C@H](CCC(=O)O)NC1=O)[C@@H](C)O [VIP-120] (Ac-LTF[R8]EYWALL[S5]ENF-NH2; staple 4-11),1.8 ± 0.7 nM
3,CC(=O)N[C@@H](CCCCN)C(=O)N[C@@H](CC(C)C)C(=O)N[C@@H](C)C(=O)N[C@@H](CCCCN)C(=O)NCCCCCC(=O)N[C@H](C(=O)N[C@@H](CO)C(=O)N[C@@H](Cc1ccccc1)C(=O)N[C@]1(C)CCCCCCC=CCCC[C@@](C)(C(N)=O)NC(=O)[C@H](CC(C)C)NC(=O)[C@H](CC(C)C)NC(=O)[C@H](C)NC(=O)[C@H](Cc2c[nH]c3ccccc23)NC(=O)[C@H](Cc2ccc(O)cc2)NC(=O)[C@H](CCC(=O)O)NC1=O)[C@@H](C)O [VIP-122],3.7 ± 0.9 nM
4,CC(=O)N[C@@H](CCCCN)C(=O)N[C@@H](CCCCN)C(=O)NCCCCCC(=O)N[C@H](C(=O)N[C@@H](CO)C(=O)N[C@@H](Cc1ccccc1)C(=O)N[C@]1(C)CCCCCCC=CCCC[C@@](C)(C(=O)N[C@@H](CCC(=O)O)C(=O)N[C@@H](CC(N)=O)C(=O)N[C@@H](Cc2ccccc2)C(N)=O)NC(=O)[C@H](CC2CCC2)NC(=O)[C@H](CC(C)C)NC(=O)[C@H](C)NC(=O)[C@H](Cc2c[nH]c3ccccc23)NC(=O)[C@H](Cc2ccc(O)cc2)NC(=O)[C@H](CCC(=O)O)NC1=O)[C@@H](C)O [VIP-124] (Ac-KK[Ahx]TSF[R8]EYWAL[Cba][S5]ENF-NH2; staple 7-14),2.7 ± 0.4 nM
5,CC(=O)N[C@@H](CCCCN)C(=O)N[C@@H](CCCCN)C(=O)N[C@@H](CCCCN)C(=O)NCCCCCC(=O)N[C@H](C(=O)N[C@@H](CO)C(=O)N[C@@H](CC(C)C)C(=O)N[C@]1(C)CCCCCCC=CCCC[C@@](C)(C(=O)N[C@@H](CCC(=O)O)C(=O)N[C@@H](CC(N)=O)C(=O)N[C@@H](Cc2ccccc2)C(N)=O)NC(=O)[C@H](Cc2c[nH]c3ccccc23)NC(=O)[C@H](CC(C)C)NC(=O)[C@H](C)NC(=O)[C@H](Cc2ccccc2)NC(=O)[C@H](Cc2ccc(O)cc2)NC(=O)[C@H](CCC(=O)O)NC1=O)[C@@H](C)O [VIP-127 SCRAM] (Ac-KKK[Ahx]TSL[R8]EYFALW[S5]ENF-NH2; staple 8-15),> 10000 nM
6,CC(=O)N[C@@H](CCCNC(=N)N)C(=O)N[C@@H](CCCNC(=N)N)C(=O)N[C@@H](CCCNC(=N)N)C(=O)NCCCCCC(=O)N[C@H](C(=O)N[C@@H](CO)C(=O)N[C@@H](CC(C)C)C(=O)N[C@]1(C)CCCCCCC=CCCC[C@@](C)(C(=O)N[C@@H](CCC(=O)O)C(=O)N[C@@H](CC(N)=O)C(=O)N[C@@H](Cc2ccccc2)C(N)=O)NC(=O)[C@H](Cc2c[nH]c3ccccc23)NC(=O)[C@H](CC(C)C)NC(=O)[C@H](C)NC(=O)[C@H](Cc2ccccc2)NC(=O)[C@H](Cc2ccc(O)cc2)NC(=O)[C@H](CCC(=O)O)NC1=O)[C@@H](C)O [VIP-128 SCRAM] (Ac-RRR[Ahx]TSL[R8]EYFALW[S5]ENF-NH2; staple 8-15),> 10000 nM
